Results taken from patent publication US20220289753A1, “SHP2 INHIBITORS” (IRBM S.P.A., priority 2019, published 2022).
Like-named read-outs stand apart in the source and are kept apart here.

Key:
[1] = target: T1, SHP-2 enzyme (Met1-Leu525) (Homo sapiens, UniProt Q06124); test: SHP2 inhibition enzymatic assay (DiFMUP substrate, IRS1 peptide activation); assay type: biochemical; conditions: SHP2 wt; activated by 500 nM IRS1 peptide; 75 μM DiFMUP substrate
T1 construct: synthetized by Origene, Met1-Leu525, cat #TP750155; purchased Origene TP750155
T1 sequence (Q06124 1-525): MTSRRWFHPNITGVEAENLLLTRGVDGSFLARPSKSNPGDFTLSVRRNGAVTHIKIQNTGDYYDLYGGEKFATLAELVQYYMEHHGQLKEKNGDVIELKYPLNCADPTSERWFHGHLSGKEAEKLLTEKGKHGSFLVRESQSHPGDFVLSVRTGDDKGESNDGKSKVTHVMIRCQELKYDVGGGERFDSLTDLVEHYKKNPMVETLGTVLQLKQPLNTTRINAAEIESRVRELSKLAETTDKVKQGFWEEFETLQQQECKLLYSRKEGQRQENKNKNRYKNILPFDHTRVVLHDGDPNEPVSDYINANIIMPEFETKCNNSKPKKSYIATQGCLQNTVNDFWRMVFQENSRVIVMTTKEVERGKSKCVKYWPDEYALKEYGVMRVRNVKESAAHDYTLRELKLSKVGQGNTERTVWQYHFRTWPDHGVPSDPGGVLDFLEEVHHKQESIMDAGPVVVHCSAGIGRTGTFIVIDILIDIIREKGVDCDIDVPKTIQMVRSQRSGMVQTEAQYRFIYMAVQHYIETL
How it was run: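 SHP-2 (Met1-Leu525, 0.5 nM final) preincubated 30 min with compounds and IRS1 activating peptide in HEPES pH 7.2 buffer with NaCl, KCl, EDTA, tween-20, 5 mM DTT. DiFMUP then added for 30 min at room temperature and fluorescence read. IC50 from four-parameter logistic fit of % inhibition.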

[2] = system: ERK phosphorylation in KYSE-520 cells; test: Phospho-ERK cellular assay (Advanced phospho-ERK1/2 (Thr202/Tyr204) TR-FRET kit); assay type: cell-based; conditions: Homo sapiens, KYSE-520, 2 h, read-out: pERK IC50
Description: Phospho-ERK Cellular Assay
ERK phosphorylation was detected using the “Advanced phospho-ERK1/2 (Thr202/Tyr204)” TR-FRET kit (Cisbio, Cat #64AERPEG/H), following the manufacturer reagents and instructions. […] After an overnight incubation, cells were treated with DMSO serial diluted compounds and incubated for 2 h at 37° C. After incubation, 2 μL/well of 4× Lysis Buffer (Cisbio 64KL1FDF), were added and incubated with cells for 30 min on gentle shaking. Finally, lysates were added with 2 μL/well of Eu cryptate (donor) and D2 (acceptor) conjugated antibodies (as provided by the Cisbio kit #64AERPEG/H) diluted 1:100 in Detection Buffer (as provided by the Cisbio kit #64AERPEG/H). Plates were then sealed and incubated at room temperature in the dark. After an overnight incubation, the TR-FRET signal was detected on a suitable reader (Envision, PerkinElmer). The lower the TR-FRET signal the higher the higher the SHP2 inhibition in cells. […] The percentage activity is fitted against the compound dilutions with a four-parameter logistic regression. The inflection point (i.e. the concentration at which half-maximal inhibition is achieved) is the IC50.

[3] = KYSE-520 cells, 2 h at 37° C., TR-FRET

| IC50 [1] [nM] | IC50 [2, 3] [nM] | SMILES | IC50 [2] [nM] |
| --- | --- | --- | --- |
| < 500 | 1000 to 5000 | CC1(N)CCN(c2nc3ncc(Sc4cccnc4C(F)(F)F)nc3[nH]2)CC1 [Example 1, 4-methyl-1-(6-((2-(trifluoromethyl)pyridin-3-yl)thio)-1H-imidazo[4,5-b]pyrazin-2-yl)piperidin-4-amine] |  |
| < 500 | 1000 to 5000 | N[C@@H]1CCCC12CCN(c1nc3ncc(Sc4cccnc4C(F)(F)F)nc3[nH]1)CC2 [Example 2, (R)-8-(6-((2-(trifluoromethyl)pyridin-3-yl)thio)-1H-imidazo[4,5-b]pyrazin-2-yl)-8-azaspiro[4.5]decan-1-amine] |  |
| < 500 | 1000 to 5000 | N[C@@H]1CCCC12CCN(c1nc3ncc(Sc4cccc(Cl)c4Cl)nc3[nH]1)CC2 [Example 3, (R)-8-(6-((2,3-dichlorophenyl)thio)-1H-imidazo[4,5-b]pyrazin-2-yl)-8-azaspiro[4.5]decan-1-amine] |  |
| < 500 | 1000 to 5000 | CC1(N)CCN(c2nc3nc(Sc4ccccc4C(F)(F)F)cnc3[nH]2)CC1 [Example 18, 4-methyl-1-(5-((2-(trifluoromethyl)phenyl)thio)-1H-imidazo[4,5-b]pyrazin-2-yl)piperidin-4-amine] |  |
| < 500 | 1000 to 5000 | CC1(N)CCN(c2nc3ncc(Sc4cccc(Cl)c4Cl)nc3[nH]2)CC1 [Example 22, 1-(5-((2,3-dichlorophenyl)thio)-1H-imidazo[4,5-b]pyrazin-2-yl)-4-methylpiperidin-4-amine] |  |
|  | < 1000 | Nc1nccc(Sc2cnc3[nH]c(N4CCC5(CC4)Oc4ccccc4[C@H]5N)nc3n2)c1Cl [Example 35, (R)-1′-(5-((2-amino-3-chloropyridin-4-yl)thio)-1H-imidazo[4,5-b]pyrazin-2-yl)-3H-spiro[benzofuran-2,4′-piperidin]-3-amine] |  |
| < 500 | 1000 to 5000 | CC1(N)CCN(c2nc3nc(Sc4ccccc4Br)cnc3[nH]2)CC1 [Example 37, 1-(5-((2-bromophenyl)thio)-1H-imidazo[4,5-b]pyrazin-2-yl)-4-methylpiperidin-4-amine] |  |
| < 500 | > 5000 | Cn1c(N2CCC(C)(N)CC2)nc2nc(Sc3cccnc3C(F)(F)F)cnc21 [Example 52, 4-methyl-1-(1-methyl-5-((2-(trifluoromethyl)pyridin-3-yl)thio)-1H-imidazo[4,5-b]pyrazin-2-yl)piperidin-4-amine] |  |
| < 500 | 1000 to 5000 | CC1(N)CCN(c2nc3nc(Sc4cccc5ccccc45)cnc3[nH]2)CC1 [Example 60, 4-methyl-1-(5-(naphthalen-1-ylthio)-1H-imidazo[4,5-b]pyrazin-2-yl)piperidin-4-amine] |  |
| < 500 | 1000 to 5000 | CC1(N)CCN(c2nc3nc(Sc4ccnc5ccccc45)cnc3[nH]2)CC1 [Example 61, 4-methyl-1-(5-(quinolin-4-ylthio)-1H-imidazo[4,5-b]pyrazin-2-yl)piperidin-4-amine] |  |
| < 500 | 1000 to 5000 | CC1(N)CCN(c2nc3nc(Sc4ccnc5cccnc45)cnc3[nH]2)CC1 [Example 62, 1-(5-((1,5-naphthyridin-4-yl)thio)-1H-imidazo[4,5-b]pyrazin-2-yl)-4-methylpiperidin-4-amine] |  |
| < 500 | 1000 to 5000 | CC1(N)CCN(c2nc3nc(Sc4cccc5nccnc45)cnc3[nH]2)CC1 [Example 71, 4-methyl-1-(5-(quinoxalin-5-ylthio)-1H-imidazo[4,5-b]pyrazin-2-yl)piperidin-4-amine] |  |
| < 500 | 1000 to 5000 | CC1(N)CCN(c2nc3nc(Sc4ccccc4S(F)(F)(F)(F)F)cnc3[nH]2)CC1 [Example 74, 4-methyl-1-(5-((2-(pentafluoro-l6-sulfaneyl)phenyl)thio)-1H-imidazo[4,5-b]pyrazin-2-yl)piperidin-4-amine] |  |
| < 500 | > 5000 | CC1(N)CCN(c2nc3nc(Sc4cccc5cccnc45)cnc3[nH]2)CC1 [Example 88, 4-methyl-1-(5-(quinolin-8-ylthio)-1H-imidazo[4,5-b]pyrazin-2-yl)piperidin-4-amine] |  |
| < 500 | 1000 to 5000 | C[C@@H]1OCC2(CCN(c3nc4nc(Sc5cccnc5C(F)(F)F)cnc4[nH]3)CC2)[C@@H]1N [Example 96, (3S,4S)-3-methyl-8-(5-((2-(trifluoromethyl)pyridin-3-yl)thio)-1H-imidazo[4,5-b]pyrazin-2-yl)-2-oxa-8-azaspiro[4.5]decan-4-amine] |  |
| < 500 | < 1000 | N[C@@H]1c2ccccc2CC12CCN(c1nc3nc(Sc4cccnc4C(F)(F)F)cnc3[nH]1)CC2 [Example 107, (S)-1′-(5-((2-(trifluoromethyl)pyridin-3-yl)thio)-1H-imidazo[4,5-b]pyrazin-2-yl)-1,3-dihydrospiro[indene-2,4′-piperidin]-1-amine] |  |
|  |  | CC1(C)C2CNCC1CN(c1nc3nc(Sc4cccnc4C(F)(F)F)cnc3[nH]1)C2 [Example 124, 2-(9,9-dimethyl-3,7-diazabicyclo[3.3.1]nonan-3-yl)-5-((2-(trifluoromethyl)pyridin-3-yl)thio)-1H-imidazo[4,5-b]pyrazine] | > 5000 |
|  |  | FC(F)(F)c1ncccc1Sc1cnc2[nH]c(N3CCC4CCC(C3)N4)nc2n1 (centres unmarked) [Example 125, 2-(3,9-diazabicyclo[4.2.1]nonan-3-yl)-5-((2-(trifluoromethyl)pyridin-3-yl)thio)-1H-imidazo[4,5-b]pyrazine] | > 5000 |
|  |  | FC(F)(F)c1ncccc1Sc1cnc2nc(NC3CCNC4(CCC4)C3)[nH]c2n1 (centres unmarked) [Example 126, N-(5-azaspiro[3.5]nonan-8-yl)-6-((2-(trifluoromethyl)pyridin-3-yl)thio)-1H-imidazo[4,5-b]pyrazin-2-amine] | > 5000 |
|  |  | FC(F)(F)c1ncccc1Sc1cnc2[nH]c(NCC3CNC(c4ccccc4)C3)nc2n1 (centres unmarked) [Example 128, N-((5-phenylpyrrolidin-3-yl)methyl)-5-((2-(trifluoromethyl)pyridin-3-yl)thio)-1H-imidazo[4,5-b]pyrazin-2-amine] | > 5000 |
| < 500 | < 1000 | CNc1nccc(Sc2cnc3[nH]c(N4CCC5(CC4)Cc4ccccc4[C@H]5N)nc3n2)c1Cl [Example 130, (S)-1′-(6-((3-chloro-2-(methylamino)pyridin-4-yl)thio)-1H-imidazo[4,5-b]pyrazin-2-yl)-1,3-dihydrospiro[indene-2,4′-piperidin]-1-amine] |  |
| < 500 | < 1000 | Nc1nccc(Sc2cnc3[nH]c(N4CCC5(CC4)Cc4ccccc4[C@H]5N)nc3n2)c1Cl [Example 132, (S)-1′-(5-((2-amino-3-chloropyridin-4-yl)thio)-1H-imidazo[4,5-b]pyrazin-2-yl)-1,3-dihydrospiro[indene-2,4′-piperidin]-1-amine] |  |
| < 500 | > 5000 | Cc1nc2nc(N3CCC(C)(N)CC3)[nH]c2nc1Sc1cccc(Cl)c1Cl [Example 133, 1-(5-((2,3-dichlorophenyl)thio)-6-methyl-1H-imidazo[4,5-b]pyrazin-2-yl)-4-methylpiperidin-4-amine] |  |
| < 500 | < 1000 | CN1C(=O)C(F)(F)c2c(Sc3cnc4[nH]c(N5CCC6(CC5)Cc5ccccc5[C@H]6N)nc4n3)cccc21 [Example 134, (S)-4-((2-(1-amino-1,3-dihydrospiro[indene-2,4′-piperidin]-1′-yl)-1H-imidazo[4,5-b]pyrazin-5-yl)thio)-3,3-difluoro-1-methylindolin-2-one] |  |
| < 500 | < 1000 | CC(=O)N1CC(F)(F)c2c(Sc3cnc4[nH]c(N5CCC6(CC5)Cc5ccccc5[C@H]6N)nc4n3)cccc21 [Example 135, (S)-1-(4-((2-(1-amino-1,3-dihydrospiro[indene-2,4′-piperidin]-1′-yl)-1H-imidazo[4,5-b]pyrazin-5-yl)thio)-3,3-difluoroindolin-1-yl)ethan-1-one] |  |
| < 500 | < 1000 | N[C@@H]1c2ccccc2CC12CCN(c1nc3nc(Sc4cccc5c4OC(F)(F)O5)cnc3[nH]1)CC2 [Example 136, (S)-1′-(5-((2,2-difluorobenzo[d][1,3]dioxol-4-yl)thio)-1H-imidazo[4,5-b]pyrazin-2-yl)-1,3-dihydrospiro[indene-2,4′-piperidin]-1-amine] |  |
